Data set [1] concerns Serum. Briefly: Nitric oxide release in rat serum using 2,3-diaminonaphthlene at 50 uM after 90 mins by Griess assay. The note with it: 1.5 h. The class given is ADME, cell-free. A general note: Griess reagent forms a coloured azo dye with nitrite.
Data set [2] in a line: Nitric oxide release in phosphate-buffered-saline containing L-cysteine using 2,3-diaminonaphthlene at 50 uM after 90 mins by fluorescence assay.
Data set [3] in a line: Nitric oxide release in phosphate-buffered-saline containing K3[Fe(CN)6] using 2,3-diaminonaphthlene at 50 uM after 90 mins by Griess assay.
The nature of data set [4]: Nitric oxide release in phosphate-buffered-saline using 2,3-diaminonaphthlene at 50 uM after 90 mins by fluorescence assay.
Data set [5] in a line: Nitric oxide release in phosphate-buffered-saline using 2,3-diaminonaphthlene at 50 uM after 90 mins by Griess assay.
The subject of data set [6] is Plasma. Nature of the data set: Nitric oxide release in human plasma using 2,3-diaminonaphthlene at 50 uM after 90 mins by fluorescence assay. The class given is ADME, cell-free. The note with it: 1.5 h.
Data set [7] is described as follows: Nitric oxide release in phosphate-buffered-saline containing K3[Fe(CN)6] using 2,3-diaminonaphthlene at 50 uM after 90 mins by fluorescence assay.
Data set [8] is described as follows: Nitric oxide release in phosphate-buffered-saline containing human plasma at 50 uM after 90 mins by fluorescence assay in absence of HgCl2.
Data set [9] addresses T1, Prostaglandin G/H synthase 2 (Homo sapiens, UniProt P35354).
T1 sequence (P35354 whole entry): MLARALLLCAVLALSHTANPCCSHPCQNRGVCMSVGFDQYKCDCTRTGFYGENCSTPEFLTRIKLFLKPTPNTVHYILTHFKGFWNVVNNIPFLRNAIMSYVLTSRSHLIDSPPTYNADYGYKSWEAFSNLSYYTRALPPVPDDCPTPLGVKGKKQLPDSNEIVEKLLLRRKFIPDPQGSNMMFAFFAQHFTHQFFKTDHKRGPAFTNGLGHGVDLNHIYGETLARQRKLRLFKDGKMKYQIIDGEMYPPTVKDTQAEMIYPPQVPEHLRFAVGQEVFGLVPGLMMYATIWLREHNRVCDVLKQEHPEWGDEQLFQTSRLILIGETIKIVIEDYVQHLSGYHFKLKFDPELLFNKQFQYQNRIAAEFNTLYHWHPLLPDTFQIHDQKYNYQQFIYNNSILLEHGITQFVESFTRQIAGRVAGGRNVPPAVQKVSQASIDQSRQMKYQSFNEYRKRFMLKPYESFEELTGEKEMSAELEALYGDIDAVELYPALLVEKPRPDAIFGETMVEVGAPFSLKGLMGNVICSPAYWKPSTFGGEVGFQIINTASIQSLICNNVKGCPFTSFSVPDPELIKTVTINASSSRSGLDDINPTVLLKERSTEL
Nature of the data set: Inhibition of recombinant human COX-2 assessed as reduction of prostaglandin-G2 to prostaglandin-H2 and oxidation of 10-acetyl-3,7-dihydroxyphenoxazine to resorufin after 5 mins by fluorescence based assay.

Data set [10] can be described thus: Nitric oxide release in phosphate-buffered-saline containing human plasma at 50 uM after 90 mins by fluorescence assay in presence of HgCl2.
The nature of data set [11]: Selectivity index, ratio of IC50 for ovine COX-1 to IC50 for recombinant human COX-2.
In data set [12] the target is T2, Prostaglandin G/H synthase 1 (Ovis aries, UniProt P05979).
T2 sequence (P05979 whole entry): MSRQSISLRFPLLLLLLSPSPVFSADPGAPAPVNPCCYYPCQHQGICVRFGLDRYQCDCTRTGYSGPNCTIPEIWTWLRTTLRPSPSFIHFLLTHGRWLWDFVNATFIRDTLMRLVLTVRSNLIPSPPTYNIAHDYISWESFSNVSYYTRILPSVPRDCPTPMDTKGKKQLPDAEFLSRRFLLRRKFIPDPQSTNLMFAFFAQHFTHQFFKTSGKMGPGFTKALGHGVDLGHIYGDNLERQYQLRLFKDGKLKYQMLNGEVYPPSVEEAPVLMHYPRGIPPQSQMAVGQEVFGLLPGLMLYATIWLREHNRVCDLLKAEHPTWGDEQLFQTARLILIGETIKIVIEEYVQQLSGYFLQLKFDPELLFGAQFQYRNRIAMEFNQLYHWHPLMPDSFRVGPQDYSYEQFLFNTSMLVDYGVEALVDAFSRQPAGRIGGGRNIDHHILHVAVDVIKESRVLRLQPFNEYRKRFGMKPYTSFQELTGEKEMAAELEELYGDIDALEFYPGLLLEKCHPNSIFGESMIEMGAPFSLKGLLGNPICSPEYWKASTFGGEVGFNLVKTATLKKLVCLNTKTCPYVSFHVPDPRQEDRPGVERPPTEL
Briefly: Inhibition of ovine COX-1 assessed as reduction of prostaglandin-G2 to prostaglandin-H2 and oxidation of 10-acetyl-3,7-dihydroxyphenoxazine to resorufin after 5 mins by fluorescence based assay.

Data set [13] is described as follows: Chemical stability of the compound in aqueous solution after 9 days by HPLC analysis. The class given is physicochemical. The note with it: buffer, 216 h.

Structures are written as SMILES.

In general, IC50 refers to the midpoint of a concentration-inhibition curve.

For the molecule `O=S(=O)(NO)c1ccccc1`, the Activity in data set [1] is 3.2%; in [2] it was 0.3%; in data set [3], 58.4%; in data set [4], 33.5%; in data set [5], 59.7%; in data set [6], 0.3%. Moreover, the Activity in data set [7] amounted to 48.3%.
`Cc1ccc(-c2cc(CO[N+](=O)[O-])nn2-c2ccc(S(N)(=O)=O)cc2)cc1`: the Activity is 0% in data set [8]; 1.2% in [2]; 3.5% in [10]; 0.3% in data set [6]; 0.6% in data set [7]. Also, the results for the IC50 in data set [9] and in [12] were 0.89 µM and > 100 µM, respectively. For the same molecule, the Ratio IC50 in [11] was > 112. Moreover, the Stability result in data set [13] was “Stable”.
Regarding `Cc1ccc(-c2c(Cl)c(CCl)nn2-c2ccc(S(N)(=O)=O)cc2)cc1`, the concentration for half-maximal inhibition (IC50) is 0.22 µM in data set [9] and > 100 µM in data set [12]. Also, the Ratio IC50 in data set [11] is > 454.
As to `Cc1ccc(-c2cc(CO)nn2-c2ccc(S(N)(=O)=O)cc2)cc1`, the IC50 is 1.27 µM in [9] and > 100 µM in data set [12]. Moreover, in [11], the Ratio IC50 was > 78.7. The Stability entry in data set [13] was “Stable”.
`CC(=O)Oc1ccccc1C(=O)OCCCCO[N+](=O)[O-]`: the IC50 in data set [9] was found to be 45 µM; in data set [12], 65 µM. The Activity in data set [2] was found to be 0.8%; in [6] it was 1.4%; in [7], 0.2%. The Ratio IC50 in data set [11] worked out at 1.4.
Consider `Cc1ccc(-c2c(Cl)c(CO[N+](=O)[O-])nn2-c2ccc(S(N)(=O)=O)cc2)cc1`, for which the Activity in data set [8] was determined as 0%; in data set [2] it was 0.8%; in data set [10] it was 3.5%; in [6] it was 0.5%. Further, the figures for the 50% inhibitory concentration (IC50) in data set [9] and in [12] were 0.28 µM and 61 µM, respectively. Besides, the Ratio IC50 in [11] turned out to be 218.
Consider `Cc1ccc(-c2cc(CCl)nn2-c2ccc(S(N)(=O)=O)cc2)cc1`, for which the concentration for half-maximal inhibition (IC50) is 0.97 µM in data set [9] and > 100 µM in data set [12]. In addition, the Ratio IC50 in data set [11] was > 103.
